Data published in EP0076478A1, “Linear kinetic determination of bicarbonate in body fluids” (BOEHRINGER MANNHEIM CORPORATION, priority 1981, dated 1983).

Columns and labels:
Assay type in all cases: biochemical
[1] = system: LDH; assay: Inhibition of reaction III (oxidation of NADH by pyruvate, catalysed by serum LDH) by oxamate; conditions: for NADH oxidized: 10 minutes, 340 nm, 37°C
Experimental: Using the same materials and methodology of the end-point determination described in Example III, the effectiveness of oxamate as an inhibitor of reaction III was determined. First, reaction III was followed by […] of oxamate to serum.with normal and supranormal LDH activities up to 2000 U/1 (one U/1 is an enzyme activity unit which catalyzes the transformation of one micromole per liter of pyruvate per minute at 37°C). In order to magnify the spectrophotometric signal, the sample volume was increased from 7.5 microliters to 50 microliters. The oxidation of NADH was followed for 10 minutes at 340 nm and 37°C, and the concentration of NADH oxidized was calculated from the change in absorbance over the 10 minute period.

[2] = molecular target: T1, MDH (porcine heart) (Sus scrofa, UniProt P00346); assay: Separate enzyme assay of MDH in the presence of varying amounts of oxamate
T1 construct: purchased Boehringer Mannheim Corporation, Indianapolis, Indiana
T1 sequence (P00346 25-338): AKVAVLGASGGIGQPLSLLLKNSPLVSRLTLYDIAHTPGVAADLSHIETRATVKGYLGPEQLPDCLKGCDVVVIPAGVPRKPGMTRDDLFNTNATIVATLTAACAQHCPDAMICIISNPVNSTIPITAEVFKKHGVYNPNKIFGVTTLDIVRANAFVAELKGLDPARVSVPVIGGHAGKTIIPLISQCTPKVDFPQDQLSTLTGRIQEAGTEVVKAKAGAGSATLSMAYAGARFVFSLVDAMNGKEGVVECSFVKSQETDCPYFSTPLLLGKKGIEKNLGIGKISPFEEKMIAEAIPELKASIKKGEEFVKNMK

[3] = system: PEPC (wheat germ); assay: Separate enzyme assay of PEPC in the presence of varying amounts of oxamate; conditions: for PEPC % Activity: average of three replicates
[4] = concentrations of oxamate up to 40 mmol/l

With NC(=O)C(=O)[O-].[Na+] [oxamate, sodium oxamate] the NADH oxidized ([1]; 2.5 mmol/l oxamate, serum LDH 282 U/l, 2 mmol/l pyruvate added) was 0 µmol/L, the NADH oxidized ([1]; 2.5 mmol/l oxamate, serum LDH 334 U/l, 2 mmol/l pyruvate added) was 1.3 µmol/L and the NADH oxidized ([1]; 2.5 mmol/l oxamate, serum LDH 340 U/l, 2 mmol/l pyruvate added) was 1.3 µmol/L. For the same molecule, the NADH oxidized ([1]; 2.5 mmol/l oxamate, serum LDH 402 U/l, 2 mmol/l pyruvate added) was 0 µmol/L, the NADH oxidized ([1]; 2.5 mmol/l oxamate, serum LDH 508 U/l, 2 mmol/l pyruvate added) was 3.5 µmol/L and the NADH oxidized ([1]; 2.5 mmol/l oxamate, serum LDH 600 U/l, 2 mmol/l pyruvate added) was 2.6 µmol/L. The NADH oxidized ([1]; 2.5 mmol/l oxamate, serum LDH 1200 U/l, 2 mmol/l pyruvate added) was 7.7 µmol/L, the NADH oxidized ([1]; 2.5 mmol/l oxamate, serum LDH 1470 U/l, sample not spiked with pyruvate) was 1.0 µmol/L and the NADH oxidized ([1]; 2.5 mmol/l oxamate, serum LDH normal (average of 10 normal sera), 2 mmol/l pyruvate added) was 1.4 µmol/L. It also gave an NADH oxidized ([1]; 5 mmol/l oxamate, serum LDH 282 U/l, 2 mmol/l pyruvate added) of 0 µmol/L, an NADH oxidized ([1]; 5 mmol/l oxamate, serum LDH 334 U/l, 2 mmol/l pyruvate added) of 0.3 µmol/L and an NADH oxidized ([1]; 5 mmol/l oxamate, serum LDH 340 U/l, 2 mmol/l pyruvate added) of 0 µmol/L. It also gave an NADH oxidized ([1]; 5 mmol/l oxamate, serum LDH 402 U/l, 2 mmol/l pyruvate added) of 0 µmol/L, an NADH oxidized ([1]; 5 mmol/l oxamate, serum LDH 508 U/l, 2 mmol/l pyruvate added) of 0.3 µmol/L and an NADH oxidized ([1]; 5 mmol/l oxamate, serum LDH 600 U/l, 2 mmol/l pyruvate added) of 0.2 µmol/L. For the same molecule, the NADH oxidized ([1]; 5 mmol/l oxamate, serum LDH 1200 U/l, 2 mmol/l pyruvate added) was 0.9 µmol/L, the NADH oxidized ([1]; 5 mmol/l oxamate, serum LDH 1470 U/l, sample not spiked with pyruvate) was 0 µmol/L and the NADH oxidized ([1]; 5 mmol/l oxamate, serum LDH normal (average of 10 normal sera), 2 mmol/l pyruvate added) was 0.5 µmol/L. For the same molecule, the NADH oxidized ([1]; 10 mmol/l oxamate, serum LDH 282 U/l, 2 mmol/l pyruvate added) was 0 µmol/L, the NADH oxidized ([1]; 10 mmol/l oxamate, serum LDH 334 U/l, 2 mmol/l pyruvate added) was 0 µmol/L and the NADH oxidized ([1]; 10 mmol/l oxamate, serum LDH 340 U/l, 2 mmol/l pyruvate added) was 0 µmol/L. It also gave an NADH oxidized ([1]; 10 mmol/l oxamate, serum LDH 402 U/l, 2 mmol/l pyruvate added) of 0 µmol/L, an NADH oxidized ([1]; 10 mmol/l oxamate, serum LDH 508 U/l, 2 mmol/l pyruvate added) of 0.1 µmol/L and an NADH oxidized ([1]; 10 mmol/l oxamate, serum LDH 600 U/l, 2 mmol/l pyruvate added) of 0 µmol/L. It also gave an NADH oxidized ([1]; 10 mmol/l oxamate, serum LDH 1200 U/l, 2 mmol/l pyruvate added) of 0.3 µmol/L, an NADH oxidized ([1]; 10 mmol/l oxamate, serum LDH 1470 U/l, sample not spiked with pyruvate) of 0 µmol/L and an NADH oxidized ([1]; 10 mmol/l oxamate, serum LDH 2000 U/l, 2 mmol/l pyruvate added) of 0 µmol/L. For the same molecule, the NADH oxidized ([1]; 10 mmol/l oxamate, serum LDH normal (average of 10 normal sera), 2 mmol/l pyruvate added) was 0.3 µmol/L, the NADH oxidized ([1]; 20 mmol/l oxamate, serum LDH 282 U/l, 2 mmol/l pyruvate added) was 0 µmol/L and the NADH oxidized ([1]; 20 mmol/l oxamate, serum LDH 334 U/l, 2 mmol/l pyruvate added) was 0 µmol/L. It also gave an NADH oxidized ([1]; 20 mmol/l oxamate, serum LDH 340 U/l, 2 mmol/l pyruvate added) of 0 µmol/L, an NADH oxidized ([1]; 20 mmol/l oxamate, serum LDH 402 U/l, 2 mmol/l pyruvate added) of 0 µmol/L and an NADH oxidized ([1]; 20 mmol/l oxamate, serum LDH 508 U/l, 2 mmol/l pyruvate added) of 0 µmol/L. For the same molecule, the NADH oxidized ([1]; 20 mmol/l oxamate, serum LDH 600 U/l, 2 mmol/l pyruvate added) was 0 µmol/L, the NADH oxidized ([1]; 20 mmol/l oxamate, serum LDH 1200 U/l, 2 mmol/l pyruvate added) was 0 µmol/L and the NADH oxidized ([1]; 20 mmol/l oxamate, serum LDH 1470 U/l, sample not spiked with pyruvate) was 0 µmol/L. The NADH oxidized ([1]; 20 mmol/l oxamate, serum LDH 2000 U/l, 2 mmol/l pyruvate added) was 0 µmol/L, the NADH oxidized ([1]; 20 mmol/l oxamate, serum LDH normal (average of 10 normal sera), 2 mmol/l pyruvate added) was 0 µmol/L and the LDH activity ([1]; oxamate concentration of 10-20 mmol/l) was “completely inhibited”. For the same molecule, the activity at 5000 µM ([2]; Oxamate 5 mmol/l, average of three replicates) was 102 ± 2%, the activity at 10000 µM ([2]; Oxamate 10 mmol/l, average of three replicates) was 102 ± 2% and the activity at 20000 µM ([2]; Oxamate 20 mmol/l, average of three replicates) was 99 ± 1%. The activity at 40000 µM ([2]; Oxamate 40 mmol/l, average of three replicates) was 98 ± 5%, the activity at 80000 µM ([2]; Oxamate 80 mmol/l, average of three replicates) was 92 ± 2% and the “effect on MDH” value [2, 4] was “no effect”. The “effect on MDH” value ([2]; varying amounts of oxamate) was “no significant effect”, the “PEPC % Activity” value ([3]; Oxamate 5 mmol/l) was 102 ± 2% and the “PEPC % Activity” value ([3]; Oxamate 10 mmol/l) was 95 ± 11%. For the same molecule, the “PEPC % Activity” value ([3]; Oxamate 20 mmol/l) was 103 ± 1%, the “PEPC % Activity” value ([3]; Oxamate 40 mmol/l) was 99 ± 2% and the “PEPC % Activity” value ([3]; Oxamate 80 mmol/l) was 86 ± 4%. For the same molecule, the “effect on PEPC” value [3, 4] was “no effect” and the “effect on PEPC” value ([3]; varying amounts of oxamate) was “no significant effect”.
